{"source": "patent US10294202B2", "about": "“Pyrrolidinones as herbicides” (FMC Corporation, priority 2013, dated 2019)", "key": {"corn [1]": {"tested_on": "corn", "assay": "Test A pre-/postemergence herbicide test", "type": "in vivo, Zea mays", "how_it_was_run": "(§1)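 Seeds in loam–sand blend received preemergence directed soil spray; separately, plants 2–10 cm at one- to two-leaf stage received postemergence spray, both with test chemicals in non-phytotoxic solvent with surfactant. After ~10 days in greenhouse, injury rated visually against untreated controls, 0 (no effect) to 100 (complete control).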"}, "nutsedge, yellow": {"tested_on": "nutsedge, yellow", "assay": "Test C pre-/postemergence herbicide test", "type": "in vivo, Cyperus esculentus", "how_it_was_run": "(§2)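 Pre-emergence: seeds sown in loam/sand blend and treated with compound in surfactant-containing solvent. Post-emergence: plants at 2–18 cm (1- to 4-leaf stage) in peat-based medium sprayed with the same formulation. Visual rating versus controls after 13–15 days in greenhouse, scale 0 (no effect) to 100 (complete control).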"}, "lambsquarters": {"tested_on": "lambsquarters", "assay": "Test C pre-/postemergence herbicide test", "type": "in vivo, Chenopodium album", "how_it_was_run": "as §2"}, "corn [2]": {"tested_on": "corn", "assay": "Test C pre-/postemergence herbicide test", "type": "in vivo, Zea mays", "how_it_was_run": "as §2"}, "soybean": {"tested_on": "soybean", "assay": "Test C pre-/postemergence herbicide test", "type": "in vivo, Glycine max", "how_it_was_run": "as §2"}, "ducksalad": {"tested_on": "ducksalad", "assay": "Test B flooded paddy test", "type": "in vivo, Heteranthera limosa", "conditions": "250 g ai/ha, Flood; scale of 0 to 100 where 0 is no effect and 100 is complete control", "how_it_was_run": "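In-water application to pots flooded 3 cm deep, plants at 2-leaf stage. Held in greenhouse 13–15 days at constant flood depth. Scored 0–100 by eye against controls.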"}, "giant foxtail": {"tested_on": "giant foxtail", "assay": "Test A pre-/postemergence herbicide test", "type": "in vivo, Setaria faberii", "how_it_was_run": "as §1"}, "ryegrass, Italian": {"tested_on": "ryegrass, Italian", "assay": "Test C pre-/postemergence herbicide test", "type": "in vivo, Lolium multiflorum", "how_it_was_run": "as §2"}, "barnyardgrass": {"tested_on": "barnyardgrass", "assay": "Test A pre-/postemergence herbicide test", "type": "in vivo, Echinochloa crus-galli", "how_it_was_run": "as §1"}, "[3]": {"conditions": "Postemergence, 1000 g ai/ha, 0 to 100 scale (0 no effect, 100 complete control)"}, "[4]": {"conditions": "Preemergence, 1000 g ai/ha, visual rating on 0 to 100 scale (0 no effect, 100 complete control), approx. 10 days"}, "[5]": {"conditions": "Preemergence, 62 g ai/ha, scale 0 to 100"}, "[6]": {"conditions": "Preemergence, 125 g ai/ha, scale 0 to 100 (0 no effect, 100 complete control)"}, "[7]": {"conditions": "Postemergence, 125 g ai/ha, 0 to 100 scale, 0 no effect, 100 complete control"}, "[8]": {"conditions": "Postemergence, 500 g ai/ha, 0 to 100 scale (0 no effect, 100 complete control)"}, "[9]": {"conditions": "Preemergence, 125 g ai/ha, visual rating on 0 to 100 scale (0 no effect, 100 complete control)"}, "[10]": {"conditions": "preemergence, 500 g ai/ha, 0 to 100 scale"}, "[11]": {"conditions": "Postemergence, 31 g ai/ha, scale 0 (no effect) to 100 (complete control)"}, "[12]": {"conditions": "Postemergence, 62 g ai/ha, scale 0 to 100 (0 no effect, 100 complete control)"}, "[13]": {"conditions": "Postemergence, 125 g ai/ha, scale 0 to 100 (0 no effect, 100 complete control)"}, "[14]": {"conditions": "Postemergence, 250 g ai/ha, scale 0 to 100 (0 no effect, 100 complete control)"}, "[15]": {"conditions": "Preemergence, 31 g ai/ha, scale 0 to 100, 0 is no effect and 100 is complete control"}}}
{"smiles": "Cc1ccccc1NC(=O)C1C(=O)NCC1c1cc(F)c(F)c(F)c1", "note": "(racemic) [Compound 35]", "values": [{"measurement": "Plant response rating, Corn", "setting": "corn [1]; [3]", "value": 20}, {"measurement": "Plant response rating, Corn", "setting": "corn [1]; [4]", "value": 20}, {"measurement": "Plant response rating, Nutsedge, Yellow", "setting": "nutsedge, yellow; [5]", "value": 0}, {"measurement": "Plant response rating, Nutsedge, Yellow", "setting": "nutsedge, yellow; [6]", "value": 0}, {"measurement": "Plant response rating, Lambsquarters", "setting": "lambsquarters; [5]", "value": 0}, {"measurement": "Plant response rating, Lambsquarters", "setting": "lambsquarters; [6]", "value": 0}, {"measurement": "Corn plant response rating", "setting": "corn [2]; Preemergence, 31 g ai/ha, scale 0 to 100 (0 no effect, 100 complete control)", "value": 0}, {"measurement": "Plant response rating, Corn", "setting": "corn [2]; [5]", "value": 0}, {"measurement": "Plant response rating, Corn", "setting": "corn [2]; [6]", "value": 5}, {"measurement": "Plant response rating, Corn", "setting": "corn [2]; Preemergence, 250 g ai/ha, scale 0 to 100 (0 no effect, 100 complete control)", "value": 5}, {"measurement": "Plant response rating, Soybean", "setting": "soybean; [5]", "value": 0}, {"measurement": "Plant response rating, Soybean", "setting": "soybean; [6]", "value": 0}, {"measurement": "Plant response rating, Ducksalad", "setting": "ducksalad", "value": 80}, {"measurement": "Plant response rating, Foxtail, Giant", "setting": "giant foxtail; [3]", "value": 90}, {"measurement": "Plant response rating, Foxtail, Giant", "setting": "giant foxtail; [4]", "value": 90}, {"measurement": "Plant response rating, Ryegrass, Italian", "setting": "ryegrass, Italian; [5]", "value": 5}, {"measurement": "Plant response rating, Ryegrass, Italian", "setting": "ryegrass, Italian; [6]", "value": 5}, {"measurement": "Plant response rating, Barnyardgrass", "setting": "barnyardgrass; [3]", "value": 90}, {"measurement": "Plant response rating, Barnyardgrass", "setting": "barnyardgrass; [4]", "value": 90}]}
{"smiles": "O=C1NCC(c2ccccc2)C1C(=O)Nc1ccccc1F", "note": "(racemic) [Compound 81]", "values": [{"measurement": "Plant response rating, Corn", "setting": "corn [1]; [7]", "value": 0}, {"measurement": "Plant response rating, Corn", "setting": "corn [1]; [8]", "value": 0}, {"measurement": "Corn plant response rating", "setting": "corn [1]; [9]", "value": 0}, {"measurement": "Plant response rating, Corn", "setting": "corn [1]; [10]", "value": 0}, {"measurement": "Plant response rating, Nutsedge, Yellow", "setting": "nutsedge, yellow; [11]", "value": 0}, {"measurement": "Plant response rating, Nutsedge, Yellow", "setting": "nutsedge, yellow; [12]", "value": 0}, {"measurement": "Plant response rating, Nutsedge, Yellow", "setting": "nutsedge, yellow; [13]", "value": 0}, {"measurement": "Plant response rating, Nutsedge, Yellow", "setting": "nutsedge, yellow; [14]", "value": 0}, {"measurement": "Nutsedge, Yellow plant response rating", "setting": "nutsedge, yellow; [15]", "value": 0}, {"measurement": "Plant response rating, Nutsedge, Yellow", "setting": "nutsedge, yellow; [5]", "value": 0}, {"measurement": "Plant response rating, Nutsedge, Yellow", "setting": "nutsedge, yellow; [6]", "value": 0}, {"measurement": "Plant response rating (scale of 0 to 100), Nutsedge, Yellow", "setting": "nutsedge, yellow; Preemergence, 250 g ai/ha", "value": 0}, {"measurement": "Plant response rating, Lambsquarters", "setting": "lambsquarters; [11]", "value": 0}, {"measurement": "Plant response rating, Lambsquarters", "setting": "lambsquarters; [12]", "value": 0}, {"measurement": "Plant response rating, Lambsquarters", "setting": "lambsquarters; [13]", "value": 0}, {"measurement": "Plant response rating, Lambsquarters", "setting": "lambsquarters; [14]", "value": 3}, {"measurement": "Lambsquarters plant response rating", "setting": "lambsquarters; [15]", "value": 0}, {"measurement": "Plant response rating, Lambsquarters", "setting": "lambsquarters; [5]", "value": 0}, {"measurement": "Plant response rating, Lambsquarters", "setting": "lambsquarters; [6]", "value": 0}, {"measurement": "Plant response rating (scale of 0 to 100), Lambsquarters", "setting": "lambsquarters; Preemergence, 250 g ai/ha", "value": 27}, {"measurement": "Plant response rating, Corn", "setting": "corn [2]; [11]", "value": 0}, {"measurement": "Plant response rating, Corn", "setting": "corn [2]; [12]", "value": 0}, {"measurement": "Plant response rating, Corn", "setting": "corn [2]; [13]", "value": 0}, {"measurement": "Plant response rating, Corn", "setting": "corn [2]; [14]", "value": 0}, {"measurement": "Corn plant response rating", "setting": "corn [2]; [15]", "value": 0}, {"measurement": "Plant response rating, Corn", "setting": "corn [2]; [5]", "value": 0}, {"measurement": "Plant response rating, Corn", "setting": "corn [2]; [6]", "value": 0}, {"measurement": "Plant response rating (scale of 0 to 100), Corn", "setting": "corn [2]; Preemergence, 250 g ai/ha", "value": 0}, {"measurement": "Plant response rating, Soybean", "setting": "soybean; [11]", "value": 0}, {"measurement": "Plant response rating, Soybean", "setting": "soybean; [12]", "value": 3}, {"measurement": "Plant response rating, Soybean", "setting": "soybean; [13]", "value": 3}, {"measurement": "Plant response rating, Soybean", "setting": "soybean; [14]", "value": 8}, {"measurement": "Soybean plant response rating", "setting": "soybean; [15]", "value": 0}, {"measurement": "Plant response rating, Soybean", "setting": "soybean; [5]", "value": 0}, {"measurement": "Plant response rating, Soybean", "setting": "soybean; [6]", "value": 0}, {"measurement": "Plant response rating (scale of 0 to 100), Soybean", "setting": "soybean; Preemergence, 250 g ai/ha", "value": 0}, {"measurement": "Plant response rating, Ducksalad", "setting": "ducksalad", "value": 70}, {"measurement": "Plant response rating, Foxtail, Giant", "setting": "giant foxtail; [7]", "value": 20}, {"measurement": "Plant response rating, Foxtail, Giant", "setting": "giant foxtail; [8]", "value": 70}, {"measurement": "Foxtail, Giant plant response rating", "setting": "giant foxtail; [9]", "value": 30}, {"measurement": "Plant response rating, Foxtail, Giant", "setting": "giant foxtail; [10]", "value": 90}, {"measurement": "Plant response rating, Ryegrass, Italian", "setting": "ryegrass, Italian; [11]", "value": 0}, {"measurement": "Plant response rating, Ryegrass, Italian", "setting": "ryegrass, Italian; [12]", "value": 0}, {"measurement": "Plant response rating, Ryegrass, Italian", "setting": "ryegrass, Italian; [13]", "value": 0}, {"measurement": "Plant response rating, Ryegrass, Italian", "setting": "ryegrass, Italian; [14]", "value": 0}, {"measurement": "Ryegrass, Italian plant response rating", "setting": "ryegrass, Italian; [15]", "value": 0}, {"measurement": "Plant response rating, Ryegrass, Italian", "setting": "ryegrass, Italian; [5]", "value": 0}, {"measurement": "Plant response rating, Ryegrass, Italian", "setting": "ryegrass, Italian; [6]", "value": 0}, {"measurement": "Plant response rating (scale of 0 to 100), Ryegrass, Italian", "setting": "ryegrass, Italian; Preemergence, 250 g ai/ha", "value": 0}, {"measurement": "Plant response rating, Barnyardgrass", "setting": "barnyardgrass; [7]", "value": 30}, {"measurement": "Plant response rating, Barnyardgrass", "setting": "barnyardgrass; [8]", "value": 80}, {"measurement": "Barnyardgrass plant response rating", "setting": "barnyardgrass; [9]", "value": 40}, {"measurement": "Plant response rating, Barnyardgrass", "setting": "barnyardgrass; preemergence, 500 g ai/ha, 0 to 100 scale (0 no effect, 100 complete control)", "value": 80}]}
